Data from publication PMC9571594, “Development of Semisynthetic Apoptosis-Inducing Agents Based on Natural Phenolic Acids Scaffold: Design, Synthesis and In-Vitro Biological Evaluation” (Molecules, 2022).
≈ marks a conversion by molar mass, not a printed value.

Columns and labels:
Caco-2 cells = assay: Annexin V-FITC/PI apoptosis assay by flow cytometry; type: cell-based; set-up: key: % of cells; conditions: annexin-V FITC/PI staining, 24h
Procedure: In order to determine the percentage of viable, apoptotic and necrotic cells after treatment with our compounds, double-staining with fluorescein isothiocyanate (FITC) and PI was performed. Annexin V-FITC Apoptosis Detection Kit (BioVision, CA, USA) was used. Briefly, cultured Caco-2 were treated with the tested compounds or DMSO for 24h. Cells were then collected by centrifugation at 2000 rpm for 5 min, and the pellet was washed with PBS then centrifuged again at 2000 rpm for 5 min then resuspended in 500μL of the kit’s binding buffer before adding the Annexin V-FITC and PI. The cells were then incubated at room temperature in the dark for 5 min. Annexin V-FITC binding was measured using FACS Calibur flow cytometer (BD biosciences, USA) (Ex = 488 nm, Em = 533 nm, FL1 filter for annexin and FL2 filter for PI).

Vero normal cell line = assay: MTT cell viability assay on normal Vero cells (selectivity); type: cell-based; conditions: for IC50: Chlorocebus sabaeus, MTT report T-4-019-5, Conc. ug/ml
Procedure: MCF-7 cells (Human breast adenocarcinoma), HepG2 (human hepatocellular carcinoma), A549 (human lung adenocarcinoma), Caco-2 (colon carcinoma), PANC-1 (human pancreatic cancer), and Vero cells (derived from normal kidney cells) were supplied by (Holding Company for Biological Products and Vaccines VACSERA; Giza, Egypt).
The effect of parent compounds and their derivatives were assessed by (3-(4,5-dimethylthiazol-2-yl)-2,5diphenyl-tetrazolium bromide) MTT assay. […] After a merged sheet of cells developed, the growth media was decanted from the 96-well microtiter and refilled with different concentrations of compounds (µg/mL), and the plate was incubated at 37 °C for 48 h to minimize exposure to the dissolving agent (Supporting Information).
MTT solution (BIO BASIC CANADA INC) was prepared [5 mg/mL in phosphate buffered saline (PBS)], added to each well and incubated for 4 h, then after removing the media, 200 μL of DMSO was added to each well to solubilize the formazan crystals and the optical density of the formazan product was measured at 560 nm using microplate reader (mindray, MR-96A). The results were calculated as the mean of the three independent experiments. […]
Determination of sample cytotoxicity on cells (MTT protocol) […]
well) and incubated at 37°C for 24 hours to develop a complete monolayer sheet.
2- Growth medium was decanted from 96 well micro titer plates after confluent sheet of cells were formed, cell monolayer was washed twice with wash media.
3- two-fold dilutions of tested sample was made in RPMI medium with 2% serum […]
4- 0.1 ml of each dilution was tested in different wells leaving 3 wells as control, receiving only maintenance medium.
5- Plate was incubated at 37°C and examined. Cells were checked for any physical signs of toxicity, e.g. partial or complete loss of the monolayer, rounding, shrinkage, […]
6- MTT solution was prepared (5mg/ml in PBS) (BIO BASIC CANADA INC).
8- 20ul MTT solution were added to each well. Place on a shaking table, 150rpm for 5 minutes, to thoroughly mix the MTT into the media.
10) Dump off the media. (dry plate on paper towels to remove residue if necessary. […]

SMILES	Apoptosis Total (Caco-2 cells)	Early Apoptosis (Caco-2 cells)	Late Apoptosis (Caco-2 cells)	Necrosis (Caco-2 cells)	Toxicity % (Vero normal cell line; 15.625 ug/ml)	Toxicity % (Vero normal cell line; 31.25 ug/ml)	Toxicity % (Vero normal cell line; 62.5 ug/ml)	Toxicity % (Vero normal cell line; 125 ug/ml)	Toxicity % (Vero normal cell line; 250 ug/ml)	Toxicity % (Vero normal cell line; 500 ug/ml)	IC50 (Vero normal cell line)
COc1cc(/C=C/C(=O)O)ccc1O [Compound 2, Ferulic acid]	13.22	5.17	6.48	1.57	0%	0.365%	4.501%	29.81%	66.79%	82.48%	196 µg/mL (≈ 1010 µM)
O=C(O)/C=C/c1ccc(O)c(O)c1 [Compound 1, Caffeic acid]	11.31	3.41	5.98	1.92	0.8516%	0.9732%	0.7299%	36.37%	77.13%	81.87%	176 µg/mL (≈ 977 µM)
